Where only a bound is given, the exact number is not on record here.

A word on the IC50: it is the midpoint of a concentration-inhibition curve.

Experiment [1] has as its system U-87 MG. Put plainly: Antiproliferative activity against human U-87 MG cells assessed as inhibition of cell growth incubated for 68 hrs by CCK-8 assay. Type of experiment: functional, cell-based, U-87MG ATCC. On the technique in general: Formazan colour is commonly taken as a measure of viable cells.
The test system of experiment [2] is LN-229. The experiment can be described thus: Antiproliferative activity against human LN-229 cells assessed as inhibition of cell growth incubated for 68 hrs by CCK-8 assay. The conditions noted are these: LN-229, 68 h. It counts as functional, cell-based.
The subject of experiment [3] is LN-229. The experiment can be described thus: Induction of apoptosis in human LN-229 cells assessed as necrotic cells at 5 uM incubated for 24 hrs by Annexin V-APC/7-AAD staining based flow cytometric analysis (reference value: 1.95 %). It counts as functional.
In experiment [4] the test system is U-87 MG. Put plainly: Induction of apoptosis in human U-87 MG cells assessed as early apoptotic cells at 5 uM incubated for 24 hrs by Annexin V-APC/7-AAD staining based flow cytometric analysis (reference value: 3.44 %). It counts as functional, U-87MG ATCC. (Flow cytometry measures light scatter and fluorescence of single cells or particles in a stream.)
Experiment [5] deals with LN-229. The experiment can be described thus: Induction of apoptosis in human LN-229 cells assessed as viable cells at 5 uM incubated for 24 hrs by Annexin V-APC/7-AAD staining based flow cytometric analysis (reference value: 92.3 %). It counts as functional. The conditions noted are these: read-out: Activity.
The subject of experiment [6] is LN-229. Put plainly: Induction of apoptosis in human LN-229 cells assessed as early apoptotic cells at 5 uM incubated for 24 hrs by Annexin V-APC/7-AAD staining based flow cytometric analysis (reference value: 0.91 %). Type of experiment: functional.
In experiment [7] the test system is U-87 MG. Put plainly: Induction of apoptosis in human U-87 MG cells assessed as late apoptotic cells at 5 uM incubated for 24 hrs by Annexin V-APC/7-AAD staining based flow cytometric analysis (reference value: 7.7 %). Type of experiment: functional, U-87MG ATCC.
Experiment [8] has as its system U-87 MG. The experiment can be described thus: Induction of apoptosis in human U-87 MG cells assessed as viable cells at 5 uM incubated for 24 hrs by Annexin V-APC/7-AAD staining based flow cytometric analysis (reference value: 85 %). Type of experiment: functional, U-87MG ATCC. The conditions noted are these: read-out: Activity.
In experiment [9] the test system is U-87 MG. The experiment can be described thus: Induction of apoptosis in human U-87 MG cells assessed as necrotic cells at 5 uM incubated for 24 hrs by Annexin V-APC/7-AAD staining based flow cytometric analysis (reference value: 3.85 %). It counts as functional, U-87MG ATCC.
Experiment [10] has as its system LN-229. Put plainly: Induction of apoptosis in human LN-229 cells assessed as late apoptotic cells at 5 uM incubated for 24 hrs by Annexin V-APC/7-AAD staining based flow cytometric analysis (reference value: 4.86 %). Type of experiment: functional.

For the molecule `Cc1ccc(CNC(=O)[C@H](Cc2c[nH]c3ccccc23)NC(=O)C(C)(c2c[nH]c3ccccc23)c2c[nH]c3ccccc23)cc1`, the IC50 was 41.3 µM in [1] and over 50 µM in experiment [2].

For `CCCCCCCCCOC(=O)[C@H](Cc1c[nH]c2ccccc12)NC(=O)C(C)(c1c[nH]c2ccccc12)c1c[nH]c2ccccc12`, the IC50 in [1] was determined as 12.3 µM; in experiment [2], 12.6 µM.

Consider `CC(C(=O)N[C@@H](Cc1c[nH]c2ccccc12)C(=O)NC[C@@H]1CCCO1)(c1c[nH]c2ccccc12)c1c[nH]c2ccccc12`, for which the IC50 in experiment [1] is over 50 µM; in [2], 23.5 µM.

Take `COC(=O)[C@H](Cc1c[nH]c2ccccc12)NC(=O)C(C)(c1c[nH]c2ccc(C(F)(F)F)cc12)c1c[nH]c2ccc(C(F)(F)F)cc12`: the results for the IC50 in experiment [1] and in [2] were 7.74 µM and 5.52 µM, respectively.

Turning to `COC(=O)[C@H](Cc1c[nH]c2ccccc12)NC(=O)C(C)(c1c[nH]c2cc(Br)ccc12)c1c[nH]c2cc(Br)ccc12`, the IC50 in experiment [1] stood at 4.81 µM; in [2] it was 6.62 µM.

`CCCCCCCCCCCCCCNC(=O)[C@H](Cc1c[nH]c2ccccc12)NC(=O)C(C)(c1c[nH]c2ccccc12)c1c[nH]c2ccccc12`: the IC50 in [1] and in experiment [2] was over 50 µM each time.

Turning to `CC(C(=O)N[C@@H](Cc1c[nH]c2ccccc12)C(=O)NCc1ccco1)(c1c[nH]c2ccccc12)c1c[nH]c2ccccc12`, the results for the IC50 in experiment [1] and in experiment [2] were 46.1 µM and 17.9 µM, respectively.

`COCCCNC(=O)[C@H](Cc1c[nH]c2ccccc12)NC(=O)C(C)(c1c[nH]c2ccccc12)c1c[nH]c2ccccc12`: the IC50 in experiment [1] was over 50 µM; in [2] it was 19.4 µM.

As to `CCCCCCNC(=O)[C@H](Cc1c[nH]c2ccccc12)NC(=O)C(C)(c1c[nH]c2ccccc12)c1c[nH]c2ccccc12`, the IC50 came to 16 µM in [1] and 25.5 µM in experiment [2].

As for `CCCCCCCCCCCCOC(=O)[C@H](Cc1c[nH]c2ccccc12)NC(=O)C(C)(c1c[nH]c2ccccc12)c1c[nH]c2ccccc12`, the IC50 was 54.9 µM in [1] and over 50 µM in [2].

As to `CCCCCCCCCCCCNC(=O)[C@H](Cc1c[nH]c2ccccc12)NC(=O)C(C)(c1c[nH]c2ccccc12)c1c[nH]c2ccccc12`, the figures for the IC50 in experiment [1] and in experiment [2] were 12 µM and 10.8 µM, respectively.

Turning to `FC(F)(F)c1nnc2c(Sc3ccccc3)nc3ccc(Cl)cc3n12`, the Activity in experiment [3] worked out at 0.97%; in experiment [4], 10%; in [6], 14.6%; in experiment [7], 5.1%; in experiment [9], 2.24%; in experiment [10], 8.42%. For the same molecule, the results for the viability at 5 µM in experiment [5] and in experiment [8] were 76.1% and 82.7%, respectively.

As to `CCCCOC(=O)[C@H](Cc1c[nH]c2ccccc12)NC(=O)C(C)(c1c[nH]c2ccccc12)c1c[nH]c2ccccc12`, the IC50 in experiment [1] worked out at 21.7 µM; in experiment [2], 20.2 µM.

In the case of `CC(C(=O)N[C@@H](Cc1c[nH]c2ccccc12)C(=O)NCC1CCOCC1)(c1c[nH]c2ccccc12)c1c[nH]c2ccccc12`, the IC50 in experiment [1] and in experiment [2] was over 50 µM each time.

As for `CC(C(=O)N[C@@H](Cc1c[nH]c2ccccc12)C(=O)NC1CC1)(c1c[nH]c2ccccc12)c1c[nH]c2ccccc12`, the IC50 in experiment [1] and in experiment [2] was over 50 µM each time.

For the molecule `CCCCCCCOC(=O)[C@H](Cc1c[nH]c2ccccc12)NC(=O)C(C)(c1c[nH]c2ccccc12)c1c[nH]c2ccccc12`, the IC50 in experiment [1] turned out to be 10.7 µM; in experiment [2], 10.5 µM.

`CCCCCCOC(=O)[C@H](Cc1c[nH]c2ccccc12)NC(=O)C(C)(c1c[nH]c2ccccc12)c1c[nH]c2ccccc12`: the IC50 is 7.54 µM in experiment [1] and 12.5 µM in [2].

For `CC(C(=O)N[C@@H](Cc1c[nH]c2ccccc12)C(=O)NCC1CC1)(c1c[nH]c2ccccc12)c1c[nH]c2ccccc12`, the IC50 in experiment [1] and in experiment [2] was over 50 µM in each case.

Take `CNC(=O)[C@@H](NC(=O)C(C)(c1c[nH]c2ccccc12)c1c[nH]c2ccccc12)C(=O)c1c[nH]c2ccccc12`: the IC50 in experiment [1] was 168 µM; in experiment [2], over 100 µM.

For `Cn1nnc2c(C(N)=O)ncn2c1=O` [TEMOZOLOMIDE], the IC50 in experiment [1] is 113 µM; in experiment [2] it was over 500 µM.

With `COc1ccc(CNC(=O)C(C)(c2c[nH]c3ccccc23)c2c[nH]c3ccccc23)cc1`, the IC50 in experiment [1] and in experiment [2] was over 50 µM throughout.

On to `COC(=O)[C@H](Cc1c[nH]c2ccccc12)NC(=O)C(C)(c1cn(C)c2ccccc12)c1cn(C)c2ccccc12`, for which the IC50 is 59.3 µM in [1] and over 50 µM in experiment [2].

On to `CCCCCCNC(=O)C(C)(c1c[nH]c2ccccc12)c1c[nH]c2ccccc12`, for which the IC50 in [1] and in experiment [2] was over 50 µM each time.

`CC(C)CCNC(=O)[C@H](Cc1c[nH]c2ccccc12)NC(=O)C(C)(c1c[nH]c2ccccc12)c1c[nH]c2ccccc12`: the IC50 in [1] was found to be 16.9 µM; in [2], 12.7 µM.

In the case of `CCCCCCCCCCOC(=O)[C@H](Cc1c[nH]c2ccccc12)NC(=O)C(C)(c1c[nH]c2ccccc12)c1c[nH]c2ccccc12`, the results for the IC50 in experiment [1] and in experiment [2] were 19.9 µM and 13.1 µM, respectively.

In the case of `CCCCCCCCCNC(=O)[C@H](Cc1c[nH]c2ccccc12)NC(=O)C(C)(c1c[nH]c2ccccc12)c1c[nH]c2ccccc12`, the figures for the IC50 in experiment [1] and in experiment [2] were 9.68 µM and 7.17 µM, respectively.

On to `CC(C)CNC(=O)[C@H](Cc1c[nH]c2ccccc12)NC(=O)C(C)(c1c[nH]c2ccccc12)c1c[nH]c2ccccc12`, for which the IC50 in experiment [1] and in [2] was over 50 µM in each case.

Take `CC(C(=O)N[C@@H](Cc1c[nH]c2ccccc12)C(=O)NC[C@H]1CCCO1)(c1c[nH]c2ccccc12)c1c[nH]c2ccccc12`: the IC50 in [1] was over 50 µM; in experiment [2], 21.3 µM.

For the molecule `COC(=O)[C@H](Cc1c[nH]c2ccccc12)NC(=O)C(C)(c1c[nH]c2ccccc12)c1c[nH]c2ccccc12`, the results for the IC50 in [1] and in [2] were 17 µM and 36.9 µM, respectively.

On to `COC(=O)[C@H](Cc1c[nH]c2ccccc12)NC(=O)C(C)(c1c[nH]c2cccc(F)c12)c1c[nH]c2cccc(F)c12`, for which the values for the IC50 in experiment [1] and in experiment [2] were 22.1 µM and 10.8 µM, respectively.

`COC(=O)[C@H](Cc1c[nH]c2ccccc12)NC(=O)C(C)(c1c[nH]c2c(Br)cccc12)c1c[nH]c2c(Br)cccc12`: the figures for the IC50 in [1] and in [2] were 7.34 µM and 8.71 µM, respectively.

As to `CCCCCCCCNC(=O)[C@H](Cc1c[nH]c2ccccc12)NC(=O)C(C)(c1c[nH]c2ccccc12)c1c[nH]c2ccccc12`, the IC50 in experiment [1] amounted to 10.7 µM; in experiment [2] it was 16.1 µM.

Consider `Cc1ccc(CNC(=O)C(C)(c2c[nH]c3ccccc23)c2c[nH]c3ccccc23)cc1`, for which the IC50 in experiment [1] and in experiment [2] was over 50 µM in each case.

On to `CNC(=O)[C@H](Cc1c[nH]c2ccccc12)NC(=O)C(C)(c1c[nH]c2ccccc12)c1c[nH]c2ccccc12`, for which the results for the IC50 in experiment [1] and in experiment [2] were 46.3 µM and 23.2 µM, respectively.

`CC(C)OC(=O)[C@H](Cc1c[nH]c2ccccc12)NC(=O)C(C)(c1c[nH]c2ccccc12)c1c[nH]c2ccccc12`: the results for the half-inhibitory concentration (IC50) in [1] and in experiment [2] were 23.5 µM and over 50 µM, respectively.

Regarding `CC(C)CCCOC(=O)[C@H](Cc1c[nH]c2ccccc12)NC(=O)C(C)(c1c[nH]c2ccccc12)c1c[nH]c2ccccc12`, the IC50 worked out at 8.3 µM in experiment [1] and 12.2 µM in experiment [2].

Consider `C#CCNC(=O)[C@H](Cc1c[nH]c2ccccc12)NC(=O)C(C)(c1c[nH]c2ccccc12)c1c[nH]c2ccccc12`, for which the IC50 is 36.4 µM in experiment [1] and 17.4 µM in experiment [2].

With `CC(C(=O)O)(c1c[nH]c2ccccc12)c1c[nH]c2ccccc12`, the IC50 in [1] and in experiment [2] was over 50 µM throughout.

For `COC(=O)[C@H](Cc1c[nH]c2ccccc12)NC(=O)C(C)(c1c[nH]c2c(F)cccc12)c1c[nH]c2c(F)cccc12`, the figures for the IC50 in experiment [1] and in experiment [2] were 15 µM and 5.52 µM, respectively.

For the molecule `CCCCCNC(=O)[C@H](Cc1c[nH]c2ccccc12)NC(=O)C(C)(c1c[nH]c2ccccc12)c1c[nH]c2ccccc12`, the IC50 amounted to 19.4 µM in [1] and 18.8 µM in [2].

On to `CCCCCCCNC(=O)C(C)(c1c[nH]c2ccccc12)c1c[nH]c2ccccc12`, for which the IC50 in experiment [1] and in experiment [2] was over 50 µM throughout.

In the case of `CCCCCCCCCCNC(=O)[C@H](Cc1c[nH]c2ccccc12)NC(=O)C(C)(c1c[nH]c2ccccc12)c1c[nH]c2ccccc12`, the IC50 in [1] worked out at 7.23 µM; in experiment [2], 6.07 µM.

On to `CC(C(=O)N[C@@H](Cc1c[nH]c2ccccc12)C(=O)O)(c1c[nH]c2ccccc12)c1c[nH]c2ccccc12`, for which the half-inhibitory concentration (IC50) in experiment [1] and in experiment [2] was over 50 µM throughout.

Consider `CC(C)CCOC(=O)[C@H](Cc1c[nH]c2ccccc12)NC(=O)C(C)(c1c[nH]c2ccccc12)c1c[nH]c2ccccc12`, for which the IC50 in experiment [1] amounted to 17.3 µM; in experiment [2], 20.4 µM.

Regarding `CC(C(=O)N[C@@H](Cc1c[nH]c2ccccc12)C(=O)OCC1CCOCC1)(c1c[nH]c2ccccc12)c1c[nH]c2ccccc12`, the IC50 in experiment [1] is 29.2 µM; in experiment [2] it was over 50 µM.

Values taken from ChEMBL document CHEMBL5614421, “Structure-activity relationship study of Pseudellone C as anti-glioma agents by targeting TNF/TNFR signaling pathway” (Eur J Med Chem, 2024).
